Measurements: BindingDB's records for doi:10.1021/acs.jnatprod.0c01036 (University of Illinois At Chicago, 2021)

Biological target: Kappa-type opioid receptor (Homo sapiens, UniProt P41145)
Test: Displacement of [3H]-U69593 from human kappa opioid receptor expressed in U2OS cells by radioligand binding assay

Kappa-type opioid receptor, sequence (P41145 whole entry): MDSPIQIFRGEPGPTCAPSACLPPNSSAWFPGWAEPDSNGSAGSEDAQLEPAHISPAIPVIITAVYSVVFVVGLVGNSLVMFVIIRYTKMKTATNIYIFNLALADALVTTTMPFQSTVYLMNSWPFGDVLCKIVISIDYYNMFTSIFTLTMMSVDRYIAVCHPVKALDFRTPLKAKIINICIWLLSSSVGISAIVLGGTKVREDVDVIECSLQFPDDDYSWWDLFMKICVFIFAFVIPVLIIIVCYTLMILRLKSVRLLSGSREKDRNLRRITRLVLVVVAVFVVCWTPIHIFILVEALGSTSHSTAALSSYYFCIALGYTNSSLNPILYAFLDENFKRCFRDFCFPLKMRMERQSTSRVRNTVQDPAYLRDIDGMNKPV

For `C/C=C1/CN2CC[C@@]34C(=Nc5ccccc53)C(C(=O)OC)[C@H]1C[C@H]24` (stereo partly specified), the Ki was 89 nM.
